Positions of bridges follow the written chain, without caps; N, C: chain ends. Non-standard residues stand in square brackets, D forms with d. Residues, ends and D or L forms follow the SMILES beside them. *: point of attachment. hPhe(3-Cl-4-CF3) = N[C@@H](CCc1ccc(C(F)(F)F)c(Cl)c1)C(=O)O; NMePhe(3-CN) = CN[C@@H](Cc1cccc(C#N)c1)C(=O)O; NMePhe(4-Me) = CN[C@@H](Cc1ccc(C)cc1)C(=O)O; NMeGly(cPent) = CN[C@H](C(=O)O)C1CCCC1; Phe(2-Cl) = N[C@@H](Cc1ccccc1Cl)C(=O)O; Phe(3-I) = N[C@@H](Cc1cccc(I)c1)C(=O)O; Phe(4-F) = N[C@@H](Cc1ccc(F)cc1)C(=O)O; NMeAla(cPr) = CN[C@@H](CC1CC1)C(=O)O; NMeCha = CN[C@@H](CC1CCCCC1)C(=O)O; NMeChg = CN[C@H](C(=O)O)C1CCCCC1; NMeI = CC[C@H](C)[C@H](NC)C(=O)O; N(CH2CH2)2CF2 = FC1(F)CCN(*)CC1; NMeD = CN[C@@H](CC(=O)O)C(=O)O; NMeL = CN[C@@H](CC(C)C)C(=O)O; αMeL = CC(C)C[C@](C)(N)C(=O)O; NMeV = CN[C@H](C(=O)O)C(C)C; d(β3hA) = C[C@@H](N)CC(=O)O; Azetidin(1-yl) = C1CN(*)C1; NMeA = CN[C@@H](C)C(=O)O; NMeAib = CNC(C)(C)C(=O)O; Piperidide = C1CCN(*)CC1; Pra = C#CC[C@H](N)C(=O)O; Ac5c = NC1(C(=O)O)CCCC1; Aze = O=C(O)[C@@H]1CCN1; Sar = CNCC(=O)O
Each molecule was assayed against T1, Kras and SOS1 (biotin-tagged human Kras loaded with GDP, His-tagged human SOS1) (Homo sapiens, UniProt P01116, G12D) (assay: Protein-protein interaction inhibition between Kras and SOS1 (KrasGl2D-SOS PPI) using AlphaScreen). Settings: AlphaScreen; biotin-tagged human Kras loaded with GDP, His-tagged human SOS1; read-out: KRAS G12D-SOS PPI IC50.
T1 construct: made in house; host or cells: E. coli (stated for Kras only)
T1 sequence (P01116 1-188 isoform P01116-2 G12D): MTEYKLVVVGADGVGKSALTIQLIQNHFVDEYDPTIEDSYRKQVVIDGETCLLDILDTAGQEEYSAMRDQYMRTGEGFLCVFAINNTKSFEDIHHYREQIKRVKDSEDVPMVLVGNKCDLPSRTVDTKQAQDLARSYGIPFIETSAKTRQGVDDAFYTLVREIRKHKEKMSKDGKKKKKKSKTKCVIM
Type: binding
How it was run: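 Binding between SOS1 and Kras is detected as bead-proximity luminescence: illuminate Ni-conjugated donors (680 nm), collect 520-620 nm emission from streptavidin-conjugated acceptors; Kras carries biotin and GDP loaded after purification, SOS1 carries a His tag.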

Compared with `CC[C@H](C)[C@@H]1NC(=O)[C@H](CC(C)C)N(C)C(=O)C[C@@H](C)NC(=O)[C@H](C(C)C)N(C)C(=O)[C@](C)(CC(C)C)NC(=O)[C@@H]2CCCN2C(=O)[C@H](CCc2ccc(C(F)(F)F)c(Cl)c2)NC(=O)CN(C)C(=O)[C@H](CC2CCCCC2)N(C)C(=O)CN(C)C(=O)CN(C)C1=O` [Compound 705] (cyclo(I[Sar][Sar][NMeCha][Sar][hPhe(3-Cl-4-CF3)]P[αMeL][NMeV][d(β3hA)][NMeL])), `CC[C@H](C)[C@@H]1NC(=O)[C@H](CC(C)C)N(C)C(=O)C[C@@H](C)NC(=O)[C@H](CC2CC2)N(C)C(=O)C2(CCCC2)NC(=O)[C@@H]2CCCN2C(=O)[C@H](CCc2ccc(C(F)(F)F)c(Cl)c2)NC(=O)CN(C)C(=O)[C@H](CC2CCCCC2)N(C)C(=O)CN(C)C(=O)CN(C)C1=O` [Compound 707] (cyclo([Ac5c][NMeAla(cPr)][d(β3hA)][NMeL]I[Sar][Sar][NMeCha][Sar][hPhe(3-Cl-4-CF3)]P)) is 26-fold lower in IC50: 360 nM for the first, 14 nM for the second. The second is the more potent here.

First: CC[C@H](C)[C@@H]1NC(=O)[C@H](CC(C)C)N(C)C(=O)C[C@@H](C(=O)N2CCCCC2)N(C)C(=O)[C@H](CC(C)C)NC(=O)C(C)(C)N(C)C(=O)[C@H](Cc2ccccc2Cl)NC(=O)[C@H](Cc2cccc(I)c2)NC(=O)CN(C)C(=O)[C@H](Cc2ccc(C)cc2)N(C)C(=O)CN(C)C(=O)CN(C)C1=O [Compound 706] ([NMeL]I[Sar][Sar][NMePhe(4-Me)][Sar][Phe(3-I)][Phe(2-Cl)][NMeAib]L[NMeD]-Piperidide; lactam N-11)
Second: CC[C@H](C)[C@@H]1NC(=O)[C@H](CC(C)C)N(C)C(=O)C[C@@H](C(=O)N2CCCCC2)N(C)C(=O)[C@H](CC(C)C)NC(=O)C(C)(C)N(C)C(=O)[C@H](Cc2ccc(F)cc2)NC(=O)[C@H](Cc2cccc(I)c2)NC(=O)CN(C)C(=O)[C@H](CC2CCCCC2)N(C)C(=O)CN(C)C(=O)CN(C)C1=O [Compound 711] ([NMeL]I[Sar][Sar][NMeCha][Sar][Phe(3-I)][Phe(4-F)][NMeAib]L[NMeD]-Piperidide; lactam N-11)
The IC50 of the first is 1.9-fold higher: 66 nM for the first, 35 nM for the second.

Compared with `CC[C@H](C)[C@@H]1NC(=O)[C@H](CC(C)C)N(C)C(=O)C[C@@H](C(=O)N2CCCCC2)N(C)C(=O)[C@H](C(C)C)N(C)C(=O)C2(CCCC2)NC(=O)[C@@H]2CCCN2C(=O)[C@H](CCc2ccc(C(F)(F)F)c(Cl)c2)NC(=O)CN(C)C(=O)[C@H](Cc2cccc(C#N)c2)N(C)C(=O)CN(C)C(=O)CN(C)C1=O` [Compound 710] ([NMeL]I[Sar][Sar][NMePhe(3-CN)][Sar][hPhe(3-Cl-4-CF3)]P[Ac5c][NMeV][NMeD]-Piperidide; lactam N-11), `CC[C@H](C)[C@@H]1NC(=O)[C@H](CC(C)C)N(C)C(=O)C[C@@H](C(=O)N2CCCCC2)N(C)C(=O)[C@H](C2CCCCC2)N(C)C(=O)C2(CCCC2)NC(=O)[C@@H]2CCCN2C(=O)[C@H](CCc2ccc(C(F)(F)F)c(Cl)c2)NC(=O)[C@H](C)N(C)C(=O)[C@H](CC2CCCCC2)N(C)C(=O)CN(C)C(=O)CN(C)C1=O` [Compound 722] ([NMeL]I[Sar][Sar][NMeCha][NMeA][hPhe(3-Cl-4-CF3)]P[Ac5c][NMeChg][NMeD]-Piperidide; lactam N-11) is 95-fold higher in IC50: 4.4 nM for the first, 420 nM for the second.

`CC[C@H](C)[C@@H]1NC(=O)[C@H](CC(C)C)N(C)C(=O)C[C@@H](C(=O)N(C)C)N(C)C(=O)[C@H]([C@@H](C)CC)N(C)C(=O)[C@H](C)NC(=O)[C@H](C)N(C)C(=O)[C@H](CCc2ccc(C(F)(F)F)c(Cl)c2)NC(=O)CN(C)C(=O)[C@H](Cc2ccc(C)cc2)N(C)C(=O)[C@@H]2CCN2C(=O)[C@H](C)N(C)C1=O` [Compound 715] ([NMeL]I[NMeA][Aze][NMePhe(4-Me)][Sar][hPhe(3-Cl-4-CF3)][NMeA]A[NMeI][NMeD]-NMe2; lactam N-11) and `CC[C@H](C)[C@@H]1NC(=O)[C@H](CC(C)C)N(C)C(=O)C[C@@H](C(=O)N2CCC2)N(C)C(=O)[C@H](C2CCCC2)N(C)C(=O)C2(CCCC2)NC(=O)[C@H](CC(=O)N2CCC(F)(F)CC2)N(C)C(=O)[C@H](CCc2ccc(C(F)(F)F)c(Cl)c2)NC(=O)CN(C)C(=O)[C@H](CC2CCCCC2)N(C)C(=O)[C@@H]2CCN2C(=O)[C@H](C)N(C)C1=O` [Compound 719] ([NMeL]I[NMeA][Aze][NMeCha][Sar][hPhe(3-Cl-4-CF3)][NMeD](N(CH2CH2)2CF2)[Ac5c][NMeGly(cPent)][NMeD]-{Azetidin(1-yl)}; lactam N-11) are within 1.5-fold of each other in IC50: 6.1 nM for the first, 5.9 nM for the second.

`C#CC[C@@H]1NC(=O)[C@H](CC(C)C)N(C)C(=O)C[C@@H](C(=O)N2CCCCC2)N(C)C(=O)[C@H](C2CCCCC2)N(C)C(=O)C2(CCCC2)NC(=O)[C@@H]2CCCN2C(=O)[C@H](CCc2ccc(C(F)(F)F)c(Cl)c2)NC(=O)CN(C)C(=O)[C@H](CC2CCCCC2)N(C)C(=O)CN(C)C(=O)CN(C)C1=O` [Compound 716] ([NMeL][Pra][Sar][Sar][NMeCha][Sar][hPhe(3-Cl-4-CF3)]P[Ac5c][NMeChg][NMeD]-Piperidide; lactam N-11) was tested, and the IC50 was 1.1 nM.

Reference: patent publication US12371454B2, “Cyclic peptide compound having Kras inhibitory action” (priority 2019, dated 2025)
